Data on 19 molecules can be found in article PMC8317200 (Journal of medicinal chemistry, 2020).

Residues, ends and D or L forms follow the SMILES beside them. *: point of attachment. Adamantane1carbonyl = O=C(C12CC3CC(CC(C3)C1)C2)*; NH(1-Adamantyl) = C1C2CC3CC1CC(N*)(C2)C3; Fmoc = O=C(OCC1c2ccccc2-c2ccccc21)*; Benzoyl(4-F) = O=C(c1ccc(F)cc1)*; Pyrrolidide = C1CCN(*)C1; Cbz = O=C(OCc1ccccc1)*; OcHex = C1CCC(O*)CC1; Bz = O=C(c1ccccc1)*; OtBu = CC(C)(C)O*; OAll = C=CCO*; X1 = C#CCO* Bounds are passed on as bounds.

One test deals with T1, FGF14:Nav1.6 complex (Homo sapiens, UniProt Q92915).
T1 sequence (Q92915 1-252 isoform Q92915-2): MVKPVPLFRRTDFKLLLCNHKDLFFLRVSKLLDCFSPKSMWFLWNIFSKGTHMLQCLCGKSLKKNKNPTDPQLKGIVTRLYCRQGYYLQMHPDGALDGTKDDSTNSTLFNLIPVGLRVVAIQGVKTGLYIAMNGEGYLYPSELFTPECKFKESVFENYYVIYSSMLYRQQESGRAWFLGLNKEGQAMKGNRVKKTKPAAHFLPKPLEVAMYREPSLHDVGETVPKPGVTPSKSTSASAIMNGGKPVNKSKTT
Briefly: Split-luciferase complementation assay. It counts as cell-based. As to conditions: for Inhibitory activity against FGF14:Nav1.6 complex assembly (in words): 50 μM screening; for activity at 50 µM: HEK293, 1 h, read-out: RLVs (%).

The next test deals with T2, FGF14 (Homo sapiens, UniProt Q92915).
T2 sequence (Q92915 64-252 isoform Q92915-2): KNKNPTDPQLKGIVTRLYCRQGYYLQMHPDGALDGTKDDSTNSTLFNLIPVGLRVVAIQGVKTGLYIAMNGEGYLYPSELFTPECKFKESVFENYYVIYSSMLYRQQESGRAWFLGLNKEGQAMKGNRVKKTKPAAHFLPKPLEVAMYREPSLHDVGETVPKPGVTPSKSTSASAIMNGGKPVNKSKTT
Kind of test: Surface plasmon resonance. As to conditions: for koff: read-out: koff FGF14; for kon: read-out: kon FGF14. Type of test: binding. In general terms: In SPR one partner is held on a chip, and binding of the other changes the refractive index at the surface.

In the next test the target is T3, CLuc-FGF14-1b (human) (UniProt Q92915).
T3 sequence: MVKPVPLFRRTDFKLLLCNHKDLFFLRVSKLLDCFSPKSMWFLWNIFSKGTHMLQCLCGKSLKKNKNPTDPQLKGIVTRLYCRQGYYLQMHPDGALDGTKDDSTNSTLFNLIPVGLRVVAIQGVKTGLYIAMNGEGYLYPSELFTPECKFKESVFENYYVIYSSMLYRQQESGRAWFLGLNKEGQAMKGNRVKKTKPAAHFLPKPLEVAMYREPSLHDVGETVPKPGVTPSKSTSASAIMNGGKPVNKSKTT
Kind of test: split reporter.

One may read the koff as the rate constant with which the complex falls apart. One may read the kon as the second-order rate constant of association. As a reminder, the IC50 is the concentration needed to halve the response being measured. Read a low IC50 as greater potency in that assay.

Turning to `COC(=O)[C@@H](NC(=O)[C@H](CCC(=O)OC(C)(C)C)NC(=O)[C@H](CC(C)C)NC(=O)[C@@H]1CCCN1C(=O)OCC1c2ccccc2-c2ccccc21)C(C)C` [Compound 21b, (9H-Fluoren-9-yl)methyl (S)-2-(((S)-1-(((S)-5-(tert-butoxy)-1-(((S)-1-methoxy-3-methyl-1-oxobutan-2-yl)amino)-1,5-dioxopentan-2-yl)amino)-4-methyl-1-oxopentan-2-yl)carbamoyl)pyrrolidine-1-carboxylate] (Fmoc-PLE(OtBu)V-OMe), on FGF14:Nav1.6 complex, the “Inhibitory activity against FGF14:Nav1.6 complex assembly (in words)” value (“Inhibitory activity” for short) is “markedly reduced inhibitory activity”.
Regarding `COC(=O)[C@@H](NC(=O)[C@H](CC(C)C)NC(=O)[C@@H]1CCCN1C(=O)OCc1ccccc1)C(C)C` [Compound 32, Benzyl (S)-2-(((S)-1-(((S)-1-methoxy-3-methyl-1-oxobutan-2-yl)amino)-4-methyl-1-oxopentan-2-yl)carbamoyl)pyrrolidine-1-carboxylate] (Cbz-Pro-Leu-Val-OMe), at FGF14:Nav1.6 complex, the activity at 50 µM was above 100%.
On to `CC(C)C[C@H](NC(=O)[C@@H]1CCCN1C(=O)c1ccc(F)cc1)C(=O)N[C@@H](CCC(=O)OC(C)(C)C)C(=O)N[C@H](C(N)=O)C(C)C` [Compound 13f, tert-Butyl (S)-5-(((S)-1-amino-3-methyl-1-oxobutan-2-yl)amino)-4-((S)-2-((S)-1-(4-fluorobenzoyl)pyrrolidine-2-carboxamido)-4-methylpentanamido)-5-oxopentanoate] ({Benzoyl(4-F)}-PLE(OtBu)V-NH2), for which, on FGF14:Nav1.6 complex, the “Inhibitory activity” value is “did not show any inhibitory activity” and the activity at 50 µM was 123 ± 3%.
For `CC(C)C[C@H](NC(=O)[C@@H]1CCCN1C(=O)C12CC3CC(CC(C3)C1)C2)C(=O)N[C@@H](CCC(=O)OC(C)(C)C)C(=O)N[C@H](C(=O)OC1CCCCC1)C(C)C` [Compound 23e, tert-Butyl (4S)-4-((2S)-2-((2S)-1-((1R,3R)-adamantane-1-carbonyl)pyrrolidine-2-carboxamido)-4-methylpentanamido)-5-(((S)-1-(cyclohexyloxy)-3-methyl-1-oxobutan-2-yl)amino)-5-oxopentanoate] (Adamantane1carbonyl-PLE(OtBu)V-OcHex), at FGF14, the off-rate (koff) stood at 0.0139 s⁻¹ and the on-rate constant (kon) is 7350 M⁻¹ s⁻¹.
With `COC(=O)[C@@H](NC(=O)[C@H](CCC(=O)OC(C)(C)C)NC(=O)[C@H](CC(C)C)NC(=O)[C@@H]1CCCN1C(C)=O)C(C)C` [Compound 21c, tert-Butyl (S)-4-((S)-2-((S)-1-acetylpyrrolidine-2-carboxamido)-4-methylpentanamido)-5-(((S)-1-methoxy-3-methyl-1-oxobutan-2-yl)amino)-5-oxopentanoate] (Ac-PLE(OtBu)V-OMe), the “Inhibitory activity” value at FGF14:Nav1.6 complex is “markedly reduced inhibitory activity”.
For the molecule `CC(C)C[C@H](NC(=O)[C@@H]1CCCN1C(=O)OCc1ccccc1)C(=O)N[C@@H](CCC(=O)OC(C)(C)C)C(=O)N[C@H](C(=O)N1CCCC1)C(C)C` [Compound 19e, Benzyl (S)-2-(((S)-1-(((S)-5-(tert-butoxy)-1-(((S)-3-methyl-1-oxo-1-(pyrrolidin-1-yl)butan-2-yl)amino)-1,5-dioxopentan-2-yl)amino)-4-methyl-1-oxopentan-2-yl)carbamoyl)pyrrolidine-1-carboxylate] (Cbz-PLE(OtBu)V-Pyrrolidide), at FGF14, the koff amounted to 0.000991 s⁻¹ and the kon was found to be 461 M⁻¹ s⁻¹.
Taken in the same sequence, the figures for `CC(C)C[C@H](NC(=O)[C@@H]1CCCN1C(=O)C12CC3CC(CC(C3)C1)C2)C(=O)N[C@@H](CCC(=O)OC(C)(C)C)C(=O)N[C@H](C(=O)OC(C)(C)C)C(C)C` [Compound 23d, tert-Butyl (4S)-4-((2S)-2-((2S)-1-((1R,3R)-adamantane-1-carbonyl)pyrrolidine-2-carboxamido)-4-methylpentanamido)-5-(((S)-1-(tert-butoxy)-3-methyl-1-oxobutan-2-yl)amino)-5-oxopentanoate] (Adamantane1carbonyl-PLE(OtBu)V-OtBu) were 0.0058 s⁻¹ and 1620 M⁻¹ s⁻¹.
Consider `CC(C)C[C@H](NC(=O)[C@@H]1CCCN1C(=O)OCc1ccccc1)C(=O)N[C@@H](CCC(=O)OC(C)(C)C)C(=O)N[C@H](C(=O)NC12CC3CC(CC(C3)C1)C2)C(C)C` [Compound 19h, Benzyl (S)-2-(((S)-1-(((S)-1-(((S)-1-(((3R,5R,7R)-adamantan-1-yl)amino)-3-methyl-1-oxobutan-2-yl)amino)-5-(tert-butoxy)-1,5-dioxopentan-2-yl)amino)-4-methyl-1-oxopentan-2-yl)carbamoyl)pyrrolidine-1-carboxylate] (Cbz-PLE(OtBu)V-{NH(1-Adamantyl)}), for which, at FGF14:Nav1.6 complex, the “Inhibitory activity” value is “minimal inhibitory activity”.
Take `COC(=O)CC[C@H](NC(=O)[C@H](CC(C)C)NC(=O)[C@@H]1CCCN1C(=O)OCc1ccccc1)C(=O)OC(C)(C)C` [Compound 30, 1-(tert-Butyl) 5-methyl ((benzyloxy)carbonyl)-L-prolyl-L-leucyl-L-glutamate] (Cbz-Pro-Leu-Glu(OMe)-OtBu): the activity at 50 µM at FGF14:Nav1.6 complex was above 100%.
On to `C#CCOC(=O)[C@@H](NC(=O)[C@H](CCC(=O)OC(C)(C)C)NC(=O)[C@H](CC(C)C)NC(=O)[C@@H]1CCCN1C(=O)C12CC3CC(CC(C3)C1)C2)C(C)C` [Compound 23b, tert-Butyl (4S)-4-((2S)-2-((2S)-1-((1R,3R)-adamantane-1-carbonyl)pyrrolidine-2-carboxamido)-4-methylpentanamido)-5-(((S)-3-methyl-1-oxo-1-(prop-2-yn-1-yloxy)butan-2-yl)amino)-5-oxopentanoate] (Adamantane1carbonyl-PLE(OtBu)V-X1), for which, on FGF14, the kon was 25800 M⁻¹ s⁻¹.
Turning to `CC(C)C[C@H](NC(=O)[C@@H]1CCCN1C(=O)c1ccccc1)C(=O)N[C@@H](CCC(=O)OC(C)(C)C)C(=O)N[C@H](C(N)=O)C(C)C` [Compound 13a, tert-Butyl (S)-5-(((S)-1-amino-3-methyl-1-oxobutan-2-yl)amino)-4-((S)-2-((S)-1-benzoylpyrrolidine-2-carboxamido)-4-methylpentanamido)-5-oxopentanoate] (Bz-PLE(OtBu)V-NH2), on FGF14:Nav1.6 complex, the “Inhibitory activity” value is reported as “did not show any inhibitory activity”.
With `C=CCOC(=O)[C@@H](NC(=O)[C@H](CCC(=O)OC(C)(C)C)NC(=O)[C@H](CC(C)C)NC(=O)[C@@H]1CCCN1C(=O)OCc1ccccc1)C(C)C` [Compound 19k, Benzyl (S)-2-(((S)-1-(((S)-1-(((S)-1-(allyloxy)-3-methyl-1-oxobutan-2-yl)amino)-5-(tert-butoxy)-1,5-dioxopentan-2-yl)amino)-4-methyl-1-oxopentan-2-yl)carbamoyl)pyrrolidine-1-carboxylate] (Cbz-PLE(OtBu)V-OAll), the “Binding by PTS and SPR (in words)” value on FGF14 (PTS and SPR) is “negligible binding”.

B1: compound 23g (peptide)
peptide: Adamantane1carbonyl-PLE(OtBu)V-{O‑propyl}
B1: in the test with CLuc-FGF14-1b (human), the IC50 stood at 22.5 µM and the efficacy (percent inhibition at the bottom plateau) was found to be 83.3%.

B2: compound 21a (peptide)
peptide: Adamantane1carbonyl-PLE(OtBu)V-OMe
SMILES: COC(=O)[C@@H](NC(=O)[C@H](CCC(=O)OC(C)(C)C)NC(=O)[C@H](CC(C)C)NC(=O)[C@@H]1CCCN1C(=O)C12CC3CC(CC(C3)C1)C2)C(C)C
In the test with CLuc-FGF14-1b (human), B2 gave an IC50 of 20.4 µM and an efficacy (percent inhibition at the bottom plateau) of 96.1%.

B3: compound 23d (peptide)
peptide: Adamantane1carbonyl-PLE(OtBu)V-OtBu
SMILES: CC(C)C[C@H](NC(=O)[C@@H]1CCCN1C(=O)C12CC3CC(CC(C3)C1)C2)C(=O)N[C@@H](CCC(=O)OC(C)(C)C)C(=O)N[C@H](C(=O)OC(C)(C)C)C(C)C
As to B3, in the test with CLuc-FGF14-1b (human), the half-inhibitory concentration (IC50) came to 33.9 µM and the efficacy (percent inhibition at the bottom plateau) was determined as 92.1%.

B4: compound 23b (peptide)
peptide: Adamantane1carbonyl-PLE(OtBu)V-{O‑propargyl}
In the test with CLuc-FGF14-1b (human), B4 had an IC50 of 13.8 µM and an efficacy (percent inhibition at the bottom plateau) of 96.6%.

B5: compound 23f (peptide)
peptide: Adamantane1carbonyl-PLE(OtBu)V-OEt
SMILES: CCOC(=O)[C@@H](NC(=O)[C@H](CCC(=O)OC(C)(C)C)NC(=O)[C@H](CC(C)C)NC(=O)[C@@H]1CCCN1C(=O)C12CC3CC(CC(C3)C1)C2)C(C)C
As for B5, in the test with CLuc-FGF14-1b (human), the half-inhibitory concentration (IC50) was 13.3 µM and the efficacy (percent inhibition at the bottom plateau) came to 82.3%.

B6: compound 23a (peptide)
peptide: Adamantane1carbonyl-PLE(OtBu)V-{O‑allyl}
Turning to B6, in the test with CLuc-FGF14-1b (human), the IC50 stood at 11.5 µM and the efficacy (percent inhibition at the bottom plateau) amounted to 95.5%.

B7: compound 23e (peptide)
peptide: Adamantane1carbonyl-PLE(OtBu)V-{O‑cyclohexyl}
B7: in the test with CLuc-FGF14-1b (human), the IC50 amounted to 35.3 µM and the efficacy (percent inhibition at the bottom plateau) was determined as 69.9%.
